Assay results from patent publication US10413575B2, “Pharmaceutical composition for preventing or treating inflammatory diseases, containing Lactococcus chungangensis as active ingredient” (CHUNG-ANG UNIVERSITY INDUSTRY-ACADEMIC COOPERATION …, priority 2015, dated 2019).

Columns and labels:
[1] = system: DNCB-induced atopic BALB/c mice; assay: Visual evaluation of DNCB-induced atopic BALB/c mice; assay type: in vivo; set-up: key to dryness/scarring / edema / erosion/excoriation / erythema/hemorrhage: 0=absence; 1=mild; 2=moderate; 3=severe; key to Total severity score / Mean severity score: sum of 4 signs each 0=absence to 3=severe; settings: skin application
From the text: (§1) Mice were divided into a total of five groups, a non-treatment (normal) group, a DNCB group, a Tacrolimus skin application group, a Lactococcus chungangensis skin application group, and a Lactococcus chungangensis oral administration group. Then, 0.1 g of hair removal cream was applied on the back and neck of BALB/c and NC/Nga mice, respectively, and hairs were removed using soft tissue paper to avoid wounds. After the mice were left for 5 days to heal minor wounds, 1% DNCB 200 (acetone:olive oil=3:1) was applied to the back and ears three times a week for two weeks to induce atopy. After atopy induction, Lactococcus chungangensis was applied to diseased parts at 10^9 cell/mouse twice a week for four weeks, while Lactococcus chungangensis was administered to oral cavity at 10^9 cell/mouse twice a week for four weeks. For efficacy comparison, Tacrolimus in use as an atopy medicine was used. Tacrolimus was applied to atopy diseased parts at 100 mg/kg twice a week for four weeks. Visual evaluation was conducted to determine a treatment effect in each of a Tacrolimus skin application group, a Lactococcus chungangensis skin application group, and a Lactococcus chungangensis oral administration group. Visual evaluation was conducted by evaluating the skin condition in four stages (0=absence, 1=mild, 2=moderate, 3=severe) according to the severity of erythema/hemorrhage, dryness/scarring, edema, and erosion/excoriation as evaluation indexes. A severity score of about 12 point or more was determined that the atopy symptoms reach the highest peak. The results are shown in Tables 1 to 5 for BALB/c mice, and Tables 6 to 10 for NC/Nga mice.

[2] = system: DNCB-induced atopic NC/Nga mice; assay: Visual evaluation of DNCB-induced atopic NC/Nga mice; assay type: in vivo; set-up: key to dryness/scarring / edema / erosion/excoriation / erythema/hemorrhage: 0=absence; 1=mild; 2=moderate; 3=severe; key to Total severity score / Mean severity score: sum of 4 signs each 0=absence to 3=severe; settings: skin application
From the text: as §1

[3] = system: DNCB-induced atopic BALB/c mice and NC/Nga mice; assay: Histopathological test (H&E) of dorsal skin tissue and ears; assay type: in vivo; settings: skin application, vs DNCB-induced atopic mice
From the text: Mice were divided into a total of five groups, a non-treatment (normal) group, a DNCB group, a Tacrolimus skin application group, a Lactococcus chungangensis skin application group, and a Lactococcus chungangensis oral administration group. Then, 0.1 g of hair removal cream was applied on the back and neck of BALB/c and NC/Nga mice, respectively, and hairs were removed using soft tissue paper to avoid wounds. After the mice were left for 5 days to heal minor wounds, 1% DNCB 200 (acetone:olive oil=3:1) was applied to the back and ears three times a week for two weeks to induce atopy. After atopy induction, Lactococcus chungangensis was applied to diseased parts at 10^9 cell/mouse twice a week for four weeks, while Lactococcus chungangensis was administered to oral cavity at 10^9 cell/mouse twice a week for four weeks. For efficacy comparison, Tacrolimus in use as an atopy medicine was used. Tacrolimus was applied to atopy diseased parts at 100 mg/kg twice a week for four weeks.
After the treatment of test materials, the dorsal skin tissue (1.5×1.5 cm) and ears of BALB/c mice and NC/Nga mice of the test and control groups were taken off, and fixed in 10% paraformaldehyde for 24 hours. The tissues were sufficiently hardened in paraffin, and sliced into five pieces to prepare slide glasses. […]

IgE [4] = assay: Immunoglobulin IgE measurement in serum (ELISA), BALB/c mice; assay type: in vivo; settings: skin application, compared with the DNCB-induced group
Method: (§2) After the ending of the treatment with test materials, BALB/c and NC/Nga mice of the five groups were sacrificed, and blood was collected from the heart. Serum was isolated from the blood to measure IgE. […] Absorbance was measured at 450 nm using a microplate reader to determine IgE protein level.

IgE [5] = assay: Immunoglobulin IgE measurement in serum (ELISA), NC/Nga mice; assay type: in vivo; settings: skin application
Method: as §2

[6] = system: IL-4, IL-5, IL-12, IFN-γ, TNF-α, and TARC; assay: Chemokine and cytokine mRNA expression in skin tissues (reverse transcription PCR); assay type: in vivo, BALB/c mice and NC/Nga mice; settings: skin application
Method: After the ending of the treatment of the BALB/c and NC/Nga mice with test materials, the BALB/c and NC/Nga mice of the DNCB-induced atopic control group, the Tacrolimus skin application group, the Lactococcus chungangensis skin application group, and the Lactococcus chungangensis oral administration group were sacrificed. The skin tissues were extracted, and Trizol was added thereto, and the skin tissues were homogenized using a homogenizer until dissolved, and RNA was extracted from the homogenized tissues. Specifically, Trizol was added to the skin tissues extracted from BALB/c mice and NC/Nga mice of each of the control and test groups, and chloroform (CHCl3) was added thereto and mixed. Then, the mixture was allowed to stand for 10 minutes and centrifuged. The centrifuged supernatant was recovered, mixed with the same amount of 2-propanol, allowed to stand for 10 minutes, centrifuged again, washed with 80% EtOH, and dried, to thereby obtain RNA. cDNA was obtained by reverse transcription PCR using AMV reverse transcriptase, dNTP (Promega, Madison, Wis.), EX Taq DNA polymerase (Takara Shuzou, Kyoto, Japan), and the obtained cDNA was used to investigate the mRNA expression levels of atopic-related chemokines and cytokines. Specifically, PCR was performed using the primer pairs described in Table 5 below for chemokines and cytokines IL-4, IL-5, IL-12, IFN-γ, TNF-α, and TARC and control GAPDH, respectively. The PCR was performed for 30 cycles of 1 minute at 94° C., 30 seconds at 95° C., 30 seconds at 55-65° C., and 3 minutes at 70° C.

[7] = system: IL-4, IL-5, IL-12, IFN-γ, TNF-α, and TARC; assay: Chemokine and cytokine protein levels in serum (ELISA); assay type: in vivo; settings: BALB/c and NC/Nga, skin application, vs DNCB-induced atopy mice
From the text: Mice were divided into a total of five groups, a non-treatment (normal) group, a DNCB group, a Tacrolimus skin application group, a Lactococcus chungangensis skin application group, and a Lactococcus chungangensis oral administration group. Then, 0.1 g of hair removal cream was applied on the back and neck of BALB/c and NC/Nga mice, respectively, and hairs were removed using soft tissue paper to avoid wounds. After the mice were left for 5 days to heal minor wounds, 1% DNCB 200 (acetone:olive oil=3:1) was applied to the back and ears three times a week for two weeks to induce atopy. After atopy induction, Lactococcus chungangensis was applied to diseased parts at 10^9 cell/mouse twice a week for four weeks, while Lactococcus chungangensis was administered to oral cavity at 10^9 cell/mouse twice a week for four weeks. […] Tacrolimus was applied to atopy diseased parts at 100 mg/kg twice a week for four weeks.
In addition, the protein level changes of IL-4, IL-5, IL-12, IFN-γ, TNF-α, and TARC in the serum isolated from the blood taken from the heart of each of BALB/c mice and NC/Nga mice were measured using IL-4 Quantikine Immunoassay Kit, IL-5 Quantikine Immunoassay Kit, IL-12 Quantikine Immunoassay Kit, TNF-α Quantikine Immunoassay Kit, CCL17/TARC Quantikine Immunoassay Kit (R&D Systems, Minneapolis, Minn., USA), respectively, and the absorbance was determined at 450 nm by using a microplate reader.

C=CC[C@@H]1/C=C(\C)C[C@H](C)C[C@H](OC)[C@H]2O[C@@](O)(C(=O)C(=O)N3CCCC[C@H]3C(=O)O[C@H](/C(C)=C/[C@@H]3CC[C@@H](O)[C@H](OC)C3)[C@H](C)[C@@H](O)CC1=O)[C@H](C)C[C@@H]2OC [Tacrolimus]
4: Total severity score ([1]; 1 Week, evaluation 1) | Total severity score ([1]; 6 Weeks, evaluation 11)
remarkably improved: skin condition observed by the naked eye [1]
1: dryness/scarring ([1]; 1 Week, evaluation 1) | erosion/excoriation ([1]; 1 Week, evaluation 1) | dryness/scarring ([1]; 1 Week, evaluation 2) | edema ([1]; 1 Week, evaluation 2) | dryness/scarring ([1]; 4 Weeks, evaluation 8) | erosion/excoriation ([1]; 5 Weeks, evaluation 9) | edema ([1]; 5 Weeks, evaluation 10) | erosion/excoriation ([1]; 5 Weeks, evaluation 10) | erythema/hemorrhage ([1]; 5 Weeks, evaluation 10) | dryness/scarring ([1]; 6 Weeks, evaluation 11) | edema ([1]; 6 Weeks, evaluation 11) | erosion/excoriation ([1]; 6 Weeks, evaluation 11) | erythema/hemorrhage ([1]; 6 Weeks, evaluation 11) | Total severity score ([1]; 6 Weeks, evaluation 12) | dryness/scarring ([1]; 6 Weeks, evaluation 12) | edema ([2]; 1 Week, evaluation 1) | erosion/excoriation ([2]; 1 Week, evaluation 1) | erythema/hemorrhage ([2]; 1 Week, evaluation 1) | edema ([2]; 1 Week, evaluation 2) | erythema/hemorrhage ([2]; 1 Week, evaluation 2)
significantly reduced: dead skin cell exfoliation, epidermal hypertrophy, and hyperkeratosis [3] | protein level of IFN-γ [7] | protein level of IL-4 [7] | protein level of IL-5 [7] | protein level of IL-12 [7] | protein level of TARC [7] | protein level of TNF-α [7]
9.5: Mean severity score ([1]; 4 Weeks)
48%: inhibition of IgE production (IgE [4])
0: edema ([1]; 1 Week, evaluation 1) | edema ([1]; 6 Weeks, evaluation 12) | erosion/excoriation ([1]; 6 Weeks, evaluation 12) | erythema/hemorrhage ([1]; 6 Weeks, evaluation 12)
reduced: mRNA expression level of IFN-γ [6] | mRNA expression level of IL-4 [6] | mRNA expression level of IL-5 [6] | mRNA expression level of IL-12 [6] | mRNA expression level of TARC [6] | mRNA expression level of TNF-α [6]
3: edema ([1]; 3 Weeks, evaluation 5) | erosion/excoriation ([1]; 3 Weeks, evaluation 5) | erythema/hemorrhage ([1]; 3 Weeks, evaluation 5) | erosion/excoriation ([1]; 3 Weeks, evaluation 6) | erythema/hemorrhage ([1]; 3 Weeks, evaluation 6) | dryness/scarring ([1]; 4 Weeks, evaluation 7) | erosion/excoriation ([1]; 4 Weeks, evaluation 7) | erythema/hemorrhage ([1]; 4 Weeks, evaluation 7) | erosion/excoriation ([1]; 4 Weeks, evaluation 8) | erythema/hemorrhage ([1]; 4 Weeks, evaluation 8) | dryness/scarring ([2]; 2 Weeks, evaluation 3) | edema ([2]; 2 Weeks, evaluation 3) | erythema/hemorrhage ([2]; 2 Weeks, evaluation 3) | dryness/scarring ([2]; 2 Weeks, evaluation 4) | erythema/hemorrhage ([2]; 2 Weeks, evaluation 4) | dryness/scarring ([2]; 3 Weeks, evaluation 5) | edema ([2]; 3 Weeks, evaluation 5) | erosion/excoriation ([2]; 3 Weeks, evaluation 5) | erythema/hemorrhage ([2]; 3 Weeks, evaluation 5) | dryness/scarring ([2]; 3 Weeks, evaluation 6) | erosion/excoriation ([2]; 3 Weeks, evaluation 6) | erythema/hemorrhage ([2]; 3 Weeks, evaluation 6) | dryness/scarring ([2]; 4 Weeks, evaluation 7) | edema ([2]; 4 Weeks, evaluation 7) | erosion/excoriation ([2]; 4 Weeks, evaluation 7) | erythema/hemorrhage ([2]; 4 Weeks, evaluation 7) | dryness/scarring ([2]; 4 Weeks, evaluation 8) | edema ([2]; 4 Weeks, evaluation 8) | erythema/hemorrhage ([2]; 4 Weeks, evaluation 8) | dryness/scarring ([2]; 5 Weeks, evaluation 9) | erosion/excoriation ([2]; 5 Weeks, evaluation 9) | erythema/hemorrhage ([2]; 5 Weeks, evaluation 9) | dryness/scarring ([2]; 5 Weeks, evaluation 10) | edema ([2]; 5 Weeks, evaluation 10) | erythema/hemorrhage ([2]; 5 Weeks, evaluation 10) | dryness/scarring ([2]; 6 Weeks, evaluation 11) | erythema/hemorrhage ([2]; 6 Weeks, evaluation 11)
10.5: Mean severity score ([1]; 3 Weeks) | Mean severity score ([2]; 2 Weeks)
6: Total severity score ([1]; 1 Week, evaluation 2) | Mean severity score ([1]; 5 Weeks) | Total severity score ([2]; 1 Week, evaluation 2)
8: Mean severity score ([1]; 2 Weeks) | Total severity score ([1]; 2 Weeks, evaluation 3) | Total severity score ([1]; 2 Weeks, evaluation 4) | Total severity score ([2]; 6 Weeks, evaluation 12)
7: Total severity score ([1]; 5 Weeks, evaluation 9)
5.5: Mean severity score ([2]; 1 Week)
2: erythema/hemorrhage ([1]; 1 Week, evaluation 1) | erosion/excoriation ([1]; 1 Week, evaluation 2) | erythema/hemorrhage ([1]; 1 Week, evaluation 2) | dryness/scarring ([1]; 2 Weeks, evaluation 3) | edema ([1]; 2 Weeks, evaluation 3) | erosion/excoriation ([1]; 2 Weeks, evaluation 3) | erythema/hemorrhage ([1]; 2 Weeks, evaluation 3) | dryness/scarring ([1]; 2 Weeks, evaluation 4) | edema ([1]; 2 Weeks, evaluation 4) | erosion/excoriation ([1]; 2 Weeks, evaluation 4) | erythema/hemorrhage ([1]; 2 Weeks, evaluation 4) | dryness/scarring ([1]; 3 Weeks, evaluation 5) | dryness/scarring ([1]; 3 Weeks, evaluation 6) | edema ([1]; 3 Weeks, evaluation 6) | edema ([1]; 4 Weeks, evaluation 7) | edema ([1]; 4 Weeks, evaluation 8) | dryness/scarring ([1]; 5 Weeks, evaluation 9) | edema ([1]; 5 Weeks, evaluation 9) | erythema/hemorrhage ([1]; 5 Weeks, evaluation 9) | dryness/scarring ([1]; 5 Weeks, evaluation 10) | dryness/scarring ([2]; 1 Week, evaluation 1) | dryness/scarring ([2]; 1 Week, evaluation 2) | erosion/excoriation ([2]; 1 Week, evaluation 2) | erosion/excoriation ([2]; 2 Weeks, evaluation 3) | edema ([2]; 2 Weeks, evaluation 4) | erosion/excoriation ([2]; 2 Weeks, evaluation 4) | edema ([2]; 3 Weeks, evaluation 6) | erosion/excoriation ([2]; 4 Weeks, evaluation 8) | edema ([2]; 5 Weeks, evaluation 9) | erosion/excoriation ([2]; 5 Weeks, evaluation 10) | edema ([2]; 6 Weeks, evaluation 11) | erosion/excoriation ([2]; 6 Weeks, evaluation 11) | dryness/scarring ([2]; 6 Weeks, evaluation 12) | edema ([2]; 6 Weeks, evaluation 12) | erosion/excoriation ([2]; 6 Weeks, evaluation 12) | erythema/hemorrhage ([2]; 6 Weeks, evaluation 12)
5: Mean severity score ([1]; 1 Week) | Total severity score ([1]; 5 Weeks, evaluation 10) | Total severity score ([2]; 1 Week, evaluation 1)
62%: inhibition of IgE production (IgE [5])
10: Total severity score ([1]; 3 Weeks, evaluation 6) | Total severity score ([1]; 4 Weeks, evaluation 7) | Total severity score ([2]; 2 Weeks, evaluation 4) | Total severity score ([2]; 6 Weeks, evaluation 11)
9: Total severity score ([1]; 4 Weeks, evaluation 8) | Mean severity score ([2]; 6 Weeks)
11.5: Mean severity score ([2]; 3 Weeks) | Mean severity score ([2]; 4 Weeks)
2.5: Mean severity score ([1]; 6 Weeks)
11: Total severity score ([1]; 3 Weeks, evaluation 5) | Total severity score ([2]; 2 Weeks, evaluation 3) | Total severity score ([2]; 3 Weeks, evaluation 6) | Total severity score ([2]; 4 Weeks, evaluation 8) | Mean severity score ([2]; 5 Weeks) | Total severity score ([2]; 5 Weeks, evaluation 9) | Total severity score ([2]; 5 Weeks, evaluation 10)
12: Total severity score ([2]; 3 Weeks, evaluation 5) | Total severity score ([2]; 4 Weeks, evaluation 7)
